Experimental findings from patent US20240293443A1, “HEPARAN SULFATE MIMETICS TO IMPROVE GLUCOSE CLEARANCE” (The Regents of the University of California, priority 2021, published 2024) are described below.

The term EC50 denotes the concentration needed to bring the measured effect to its halfway point.

“Also recorded” adds a separate entry of the source.

For one series, the target named is T1, Wnt5a (Homo sapiens, UniProt P41221).
T1 sequence (P41221 62-380): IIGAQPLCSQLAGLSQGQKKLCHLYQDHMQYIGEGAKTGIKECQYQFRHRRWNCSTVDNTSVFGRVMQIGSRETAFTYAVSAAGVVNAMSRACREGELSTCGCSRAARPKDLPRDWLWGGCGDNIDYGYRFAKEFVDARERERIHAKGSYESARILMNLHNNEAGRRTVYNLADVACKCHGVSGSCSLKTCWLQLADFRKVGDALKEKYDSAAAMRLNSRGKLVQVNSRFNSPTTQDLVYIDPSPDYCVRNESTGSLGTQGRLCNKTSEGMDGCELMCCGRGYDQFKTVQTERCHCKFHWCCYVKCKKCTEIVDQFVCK
Description: Wnt binding to HS-mimetics via ELISA (Wnt5a). The settings on record: immobilized Wnt5a, biotinylated glycopolymer or heparin. Here is the method: (§1) Wnt5a and Wnt10b proteins (10 nM solution in 1% (w/v) BSA/DPBS) were immobilized on 96-well tissue culture treated plates overnight at 4° C. The plates were washed twice with 0.05% (v/v) Tween-20 in DPBS and blocked with 1% (w/v) BSA/DPBS for 6 hours at room temperature. Biotinylated HS-mimetic glycopolymers GP or heparin were added to the wells at increasing concentrations in 1% (w/v) BSA/DPBS. After 1 hour incubation, the wells were washed three times with 0.05% Tween-20 in DPBS. Streptavidin-HRP (1:1000 in 1% BSA/DPBS) was added for 45 min at ambient temperature. The wells were again washed three times in 0.05% Tween-20 in DPBS, followed by treatment with 100 μL of TMB substrate for 2-5 min before quenching with 100 μL of 2N sulfuric acid. Absorbance (450 nm) was measured using a Molecular Devices SpectraMax plate reader.
(In general: An ELISA detects its analyte on a solid surface through an enzyme-linked reagent.)

For the next series, the target named is Wnt10b (Homo sapiens, UniProt O00744). Description: Wnt binding to HS-mimetics via ELISA (Wnt10b). The settings on record: immobilized Wnt10b, biotinylated glycopolymer or heparin. Here is the method:
as §1

In series [1] the test system is WT adipocytes. Description: 3[H]-2-deoxy-glucose uptake in WT MEF-derived adipocytes. Format: cell-based, mouse. Particulars: for glucose clearance in differentiated adipocytes: WT, Wnt inhibitor treatment during the first 3 days of adipogenesis. Here is the method: Cells were seeded on a 24-well plate at a density of 30,000 cells/cm^2. Cells were allowed to grow to confluence for 48 hours. At this point (Day 0), the media were removed, cells were washed with PBS, and differentiation media with or without heparin (100 μg/ml) were added. […] On Day 3 of differentiation, cells were washed with PBS and treated with insulin media, which consisted of 2 μM insulin, and 1 μM rosiglitazone in DMEM with 10% FBS. The cellular cholesterol and triglyceride content was determined after lysing cells in 0.1M NaOH. Total plasma cholesterol and plasma triglyceride levels (Sekisui Diagnostics) and protein levels (BCA protein assay) were determined using commercially available kits.
Cells are washed twice with PBS and placed into DMEM with 2 mg/mL BSA for two hours. […] The insulin solution is then removed and the cells are washed twice with transport solution before radioactive transport solution is added, which consists of 0.25 μCi/well of 3[H]-2-deoxy-glucose and 0.025 mM 2-deoxy-glucose. After a 10-minute incubation in the radioactive transport solution, it is removed and the, the glucose uptake is halted by addition of ice cold PBS. The cold PBS is removed and each well is washed twice with PBS. Then, lysis buffer consisting of 0.1 M NaOH and 0.1% w/v sodium dodecyl sulfate, is added to each well. The radioactive lysate was transferred to a scintillation vial containing 5 mL of Ultima Gold liquid scintillation fluid and analyzed using a liquid Scintillation counter.
Cells were differentiated for 6 days using the standard adipogenic differentiation protocol described above. Each day on Days 0-3, the cells were washed with PBS and incubated with 200 μL solution of DMEM containing GPs at the indicated concentrations added for 1 hour at 37° C. After this time, the media were removed, the cells were washed with PBS, and fresh differentiation media were added. On Day 6, the adipocytes were subjected to the ^3[H]-2-deoxy-glucose uptake assay and the spent media were analyzed for glucose and lactate content as described above.

The subject of a further series is Ndst1−/− adipocytes. Description: 3[H]-2-deoxy-glucose uptake in Ndst1−/− MEF-derived adipocytes. Format: cell-based, mouse. The settings on record: for glucose clearance in differentiated adipocytes: Ndst1−/−, Wnt inhibitor treatment during the first 3 days of adipogenesis. Here is the method: Cells were seeded on a 24-well plate at a density of 30,000 cells/cm^2. Cells were allowed to grow to confluence for 48 hours. At this point (Day 0), the media were removed, cells were washed with PBS, and differentiation media with or without heparin (100 μg/ml) were added. […] On Day 3 of differentiation, cells were washed with PBS and treated with insulin media, which consisted of 2 μM insulin, and 1 μM rosiglitazone in DMEM with 10% FBS. The cellular cholesterol and triglyceride content was determined after lysing cells in 0.1M NaOH. Total plasma cholesterol and plasma triglyceride levels (Sekisui Diagnostics) and protein levels (BCA protein assay) were determined using commercially available kits. Cells are washed twice with PBS and placed into DMEM with 2 mg/mL BSA for two hours. […] The insulin solution is then removed and the cells are washed twice with transport solution before radioactive transport solution is added, which consists of 0.25 μCi/well of 3[H]-2-deoxy-glucose and 0.025 mM 2-deoxy-glucose. After a 10-minute incubation in the radioactive transport solution, it is removed and the, the glucose uptake is halted by addition of ice cold PBS. The cold PBS is removed and each well is washed twice with PBS. Then, lysis buffer consisting of 0.1 M NaOH and 0.1% w/v sodium dodecyl sulfate, is added to each well. The radioactive lysate was transferred to a scintillation vial containing 5 mL of Ultima Gold liquid scintillation fluid and analyzed using a liquid Scintillation counter. Cells were differentiated for 6 days using the standard adipogenic differentiation protocol described above. Each day on Days 0-3, the cells were washed with PBS and incubated with 200 μL solution of DMEM containing GPs at the indicated concentrations added for 1 hour at 37° C. After this time, the media were removed, the cells were washed with PBS, and fresh differentiation media were added. On Day 6, the adipocytes were subjected to the ^3[H]-2-deoxy-glucose uptake assay and the spent media were analyzed for glucose and lactate content as described above.

Series [2] relates to WT adipocytes. Description: Glucose and lactate in spent media (YSI), adipocytes differentiated with heparin. Format: cell-based, mouse. The settings on record: heparin 100 μg/ml during differentiation; spent media day 6. Here is the method: Cells were seeded on a 24-well plate at a density of 30,000 cells/cm^2. Cells were allowed to grow to confluence for 48 hours. At this point (Day 0), the media were removed, cells were washed with PBS, and differentiation media with or without heparin (100 μg/ml) were added. Differentiation media consisted of 0.1 μM dexamethasone, 450 μM 3-isobutyl-1-methylxanthine, 2 μM insulin, and 1 μM rosiglitazone in DMEM supplemented with 10% FBS. On Day 3 of differentiation, cells were washed with PBS and treated with insulin media, which consisted of 2 μM insulin, and 1 μM rosiglitazone in DMEM with 10% FBS. The cellular cholesterol and triglyceride content was determined after lysing cells in 0.1M NaOH. Total plasma cholesterol and plasma triglyceride levels (Sekisui Diagnostics) and protein levels (BCA protein assay) were determined using commercially available kits.
MEFs are differentiated to day 6 into adipocytes in a 24 well plate, and on day six (6) 500 μL of media is collected from each well in an Eppendorf tube and immediately frozen in liquid nitrogen. […] Then, the filtrate is analyzed using a YSl 2900, where the sample is loaded into two wells of a 96 well plate, 200 μL media per well. The samples are then analyzed for lactate and glucose concentration.

The test system of series [3] is Primary adipocytes derived from murine subcutaneous white adipose tissue (sWAT) stromal vascular cells. Description: Glucose uptake in primary adipocytes from sWAT stromal vascular cells. Particulars: co-incubated with heparin during adipogenesis. The class given is cell-based. Here is the method:
Around 1 g subcutaneous WAT from 8- to 14-week-old, male or female mice was dissected, washed, minced, and digested in 1 ml DMEM containing 0.25 U/ml collagenase D (Sigma) at 37° C. with constant agitation at 200 rpm for 25-35 min. To stop the digestion, complete DMEM including 10% FBS and 1% P/S was added to the digestion mixture. Then the cells were filtered through a 100 μm cell strainer. After centrifugation at 200×g for 10 min, the floating adipocyte fraction (AF) was collected for protein isolation, while the pellet containing stromal vascular fraction (SVF) was resuspended in fresh complete medium and seeded on a 10-cm cell culture dish. At a confluency of ˜80%, cells were seeded on 6- and 12-well plates and grown to confluency for differentiation. Differentiation was induced by using complete DMEM/F12 media supplemented with 1 μM dexamethasone, 0.5 mM isobutylmethylxanthine (IBMX), 5 μg/ml insulin, and 1 μM rosiglitazone. Three days after induction, medium was changed to complete DMEM/F12 supplemented with 5 μg/ml insulin for two days, afterwards cells were maintained in complete DMEM/F12 medium. […]
Cells are washed twice with PBS and placed into DMEM with 2 mg/mL BSA for two hours. […] The radioactive lysate was transferred to a scintillation vial containing 5 mL of Ultima Gold liquid scintillation fluid and analyzed using a liquid Scintillation counter.

In a further series the target is T2, lipoprotein lipase (LPL) (Bos taurus, UniProt P11151).
T2 construct: gift of Gunilla Olivecrona, Umea University
T2 sequence (P11151 29-478): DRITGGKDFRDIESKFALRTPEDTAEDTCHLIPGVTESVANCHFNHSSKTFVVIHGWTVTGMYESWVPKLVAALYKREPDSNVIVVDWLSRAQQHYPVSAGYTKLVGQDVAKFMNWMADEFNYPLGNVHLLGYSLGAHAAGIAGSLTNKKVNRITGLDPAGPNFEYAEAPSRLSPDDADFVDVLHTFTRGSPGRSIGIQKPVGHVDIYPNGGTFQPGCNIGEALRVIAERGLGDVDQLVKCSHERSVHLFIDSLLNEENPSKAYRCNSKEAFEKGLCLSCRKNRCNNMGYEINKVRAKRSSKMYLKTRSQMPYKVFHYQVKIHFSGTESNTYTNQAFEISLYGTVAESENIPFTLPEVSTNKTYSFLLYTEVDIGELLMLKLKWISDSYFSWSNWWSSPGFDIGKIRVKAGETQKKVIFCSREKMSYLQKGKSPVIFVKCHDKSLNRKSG
Description: Lipoprotein lipase (LPL) binding to adipocytes. Format: cell-based, Bovine. Particulars: exogenous heparin 100 μg/ml. Here is the method:
Bovine LPL generously provided by Gunilla Olivecrona (Department of Biomedical Sciences, Umea University, Umea Sweden)^42. Enzyme activity was determined using ^3H radiolabeled substrate as previously described^43. Molar ratio of biotin to LPL was determined in a HABA displacement assay (Pierce Biotin Quantitation Kit).
LPL binding assays were performed similar to as previously described. Cells were harvested using Accutase cell detachment solution (Millipore) and washed twice with PBS. Cells were incubated for 15 min at 37° C. in serum free media in the absence or presence of 5 mU/ml each of recombinant heparin lyases 1, 11, and 111. Treated and untreated cells were washed twice with PBS, chilled on ice for 20 min and incubated with 50 nM biotinylated LPL in 1% BSA supplemented PBS at 4° C. for 1 hour. Following the incubation, cells were washed twice in ice-cold PBS and incubated with 0.4 μg/mL Phycoerythrin-Cy5 conjugated Streptavidin in 1% BSA supplemented PBS at 4° C. A set of cells was exposed only to Phycoerythrin-Cy5 conjugated Streptavidin and was used as background control. Cells were washed twice with PBS and analyzed by flow cytometry.

Series [4] relates to WT adipocytes. Description: [9,10-3H(N)]-Palmitate (FFA) uptake in adipocytes. Format: cell-based, mouse. The settings on record: chemical inhibition of HS (heparin 100 μg/ml).

Chain of Wnt10b (O00744 29-389, species assumed): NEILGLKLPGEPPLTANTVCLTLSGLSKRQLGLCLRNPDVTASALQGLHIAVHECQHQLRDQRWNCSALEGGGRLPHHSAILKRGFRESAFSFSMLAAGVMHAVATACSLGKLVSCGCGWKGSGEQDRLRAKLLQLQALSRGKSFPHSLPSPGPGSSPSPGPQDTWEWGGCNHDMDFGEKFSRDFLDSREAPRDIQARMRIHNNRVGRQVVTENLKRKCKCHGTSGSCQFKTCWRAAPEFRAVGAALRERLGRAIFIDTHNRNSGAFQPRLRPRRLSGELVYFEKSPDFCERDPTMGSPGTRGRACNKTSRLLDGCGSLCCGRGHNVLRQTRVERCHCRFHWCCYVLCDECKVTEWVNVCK

For heparin, the EC50 on Wnt5a came to 28.2 nM; at Wnt10b, 30.1 nM. Further, the “reduction of glucose uptake” value in the series with WT adipocytes [1] (WT cells treated with exogenous heparin (100 μg/ml) during differentiation, basal) turned out to be 45%. Also, in the series on WT adipocytes [1] (WT cells with heparin, insulin stimulated), the “differential in glucose uptake versus WT after insulin stimulation” value is recorded as −44%. Also, the “glucose uptake at day 6” value is given as “significantly reduced glucose uptake” in the series with WT adipocytes [1] (heparin 100 μg/ml from start, cells treated up to day 3 and beyond); “can no longer impact glucose uptake” in the series with WT adipocytes [1] (heparin added after day 4 of differentiation). In the series on WT adipocytes [1] (heparin 100 μg/ml simultaneously with 3[H]-2-deoxy-glucose administration, WT and Ndst1−/−), the “glucose uptake, acute treatment of mature adipocytes” value is reported as “unaltered glucose uptake”. The “glucose uptake potential relative to untreated WT adipocytes” value with WT adipocytes [1] (soluble heparin 100 μg/ml) is given as “reduces glucose uptake potential”. The “3[H]-2-deoxy-glucose uptake” value with Ndst1−/− adipocytes (Ndst1−/− MEFs treated 1 hour at 37° C. on day 0 to 3, differentiated adipocytes day 6) is on record as “had no effect; also recorded: no effect on cellular glucose uptake”. In addition, the “effect of exogenous heparin on glucose uptake” value with Ndst1−/− adipocytes (Ndst1−/− cells treated with exogenous heparin) is “did not have an additive effect on glucose uptake”. Further, the “glucose levels in the culture medium” value in the series on WT adipocytes [2] is listed as “high glucose levels remaining”. Besides, the “lactate production” value in the series on WT adipocytes [2] is “decreased lactate production”. Besides, the “glucose uptake” value in series [3] is “reduced glucose uptake”. Further, at lipoprotein lipase (LPL), the “binding of lipoprotein lipase (LPL)” value was “reduced binding”. Also, the “FFA uptake” value with WT adipocytes [4] is listed as “did not negatively affect FFA uptake”.
Regarding `Oc1nc(-c2ccc(C(F)(F)F)cc2)nc2c1CSCC2` [XAV-939], the “glucose clearance in differentiated adipocytes” value with WT adipocytes [1] and with Ndst1−/− adipocytes was “enhanced glucose clearance” each time.
On to `Cc1cc(-c2ccc(CC(=O)Nc3ccc(-c4cccnc4)cc3)cc2)ccn1` [Wnt-C59], for which the “toxicity to WT adipocytes” value with WT adipocytes [1] (10 nM) is reported as “toxic”. Moreover, the figures for the “glucose clearance in differentiated adipocytes” value in the series with WT adipocytes [1] and in the series with Ndst1−/− adipocytes were “no effect on cellular glucose clearance” and “enhanced glucose clearance capacity”, respectively.
